Measurements reported in patent publication US5099015A, “Trifluoromethyl 1-carba(1-dethia)cephems” (Eli Lilly and Company, priority 1991, dated 1992).
≈ marks a conversion by molar mass, not a printed value. Like-named read-outs stand apart in the source and are kept apart here.

Legend:
Assay in all cases: Agar dilution antibacterial test (MIC)
Format in all cases: cell-based
Acom AC12 = tested on: Acom AC12
Procedure: (§1) Fresh overnight cultures of test bacteria were diluted to approximately 1x(10)4 cells/microliter and applied in one microliter volumes to the surfaces of the agar plates. The innoculated plates were incubated overnight at 35° C. in ambient air. Minimum inhibitory concentration (mic) endpoints were recorded as the lowest antibiotic concentrations in micrograms per milliliter that inhibited the development of visible growth on the plates. The following summarizes the results of such tests with the compounds of the examples listed above.

Citro CF17 = tested on: Citro CF17
Procedure: as §1

[1] = tested on: Enterobacter aerogenes C32
Procedure: as §1

[2] = tested on: Enterobacter aerogenes EB17
Procedure: as §1

[3] = tested on: Enterobacter cloacae 265A
Procedure: as §1

Enterobacter cloacae EB5 = tested on: Enterobacter cloacae EB5
Procedure: as §1

[4] = tested on: Enterococcus faecalis 2041
Procedure: as §1

Enterococcus faecium X66 = tested on: Enterococcus faecium X66
Procedure: as §1

Escherichia coli EC14 = tested on: Escherichia coli EC14
Procedure: as §1

Escherichia coli N10 = tested on: Escherichia coli N10
Procedure: as §1

Escherichia coli TEM = tested on: Escherichia coli TEM
Procedure: as §1

[5] = tested on: Haemophilus influenzae 76
Procedure: as §1

[6] = tested on: Haemophilus influenzae C.L.
Procedure: as §1

[7] = tested on: Klebsiella pneumoniae KAE
Procedure: as §1

[8] = tested on: Klebsiella pneumoniae X26
Procedure: as §1

[9] = tested on: Klebsiella pneumoniae X68
Procedure: as §1

Morg morg PR15 = tested on: Morg morg PR15
Procedure: as §1

Proteus incon PR33 = tested on: Proteus incon PR33
Procedure: as §1

Proteus rett C24 = details: Proteus rett C24
Procedure: as §1

Salmonella 1335 = tested on: Salmonella 1335
Procedure: as §1

Salmonella X514 = tested on: Salmonella X514
Procedure: as §1

Serratia SE3 = tested on: Serratia SE3
Procedure: as §1

Serratia X99 = tested on: Serratia X99
Procedure: as §1

Shig sonn. N9 = tested on: Shig sonn. N9
Procedure: as §1

[10] = tested on: Staphylococcus aureus NRRL X1.1
Procedure: as §1

[11] = tested on: Staphylococcus aureus S13E
Procedure: as §1

[12] = tested on: Staphylococcus aureus V41
Procedure: as §1

[13] = tested on: Staphylococcus aureus X400
Procedure: as §1

[14] = tested on: Staphylococcus epidermidis 222
Procedure: as §1

[15] = tested on: Staphylococcus epidermidis EPI270
Procedure: as §1

[16] = tested on: Staphylococcus pneumoniae Park 1
Procedure: as §1

[17] = tested on: Staphylococcus pyogenes C203
Procedure: as §1

[18] = Klebsiella aerogenes, read-out: MIC

N[C@@H](C(=O)N[C@@H]1C(=O)N2C(C(=O)O)=C(C(F)(F)F)CC[C@H]12)c1ccc(F)cc1 [Compound 3, [6R,7S]-7-β-[D-α-(amino)-4-fluorophenylacetylamino]-3-trifluoromethyl-1-carba-1-dethia-3-cephem-4-carboxylic acid]
MIC (Acom AC12; read-out: MIC): 64 µg/mL (≈ 159 µM)
MIC (Citro CF17; read-out: MIC): 8 µg/mL (≈ 19.9 µM)
MIC [1, 18]: 8 µg/mL (≈ 19.9 µM)
MIC [2, 18]: 8 µg/mL (≈ 19.9 µM)
MIC ([3]; read-out: MIC): 8 µg/mL (≈ 19.9 µM)
MIC (Enterobacter cloacae EB5; read-out: MIC): 8 µg/mL (≈ 19.9 µM)
MIC ([4]; read-out: MIC): 32 µg/mL (≈ 79.7 µM)
MIC (Enterococcus faecium X66; read-out: MIC): 32 µg/mL (≈ 79.7 µM)
MIC (Escherichia coli EC14; read-out: MIC): 1 µg/mL (≈ 2.49 µM)
MIC (Escherichia coli N10; read-out: MIC): 4 µg/mL (≈ 9.97 µM)
MIC (Escherichia coli TEM; read-out: MIC): 1 µg/mL (≈ 2.49 µM)
MIC ([5]; read-out: MIC): 1 µg/mL (≈ 2.49 µM)
MIC ([6]; read-out: MIC): 0.5 µg/mL (≈ 1.25 µM)
MIC ([7]; read-out: MIC): 8 µg/mL (≈ 19.9 µM)
MIC ([8]; read-out: MIC): 0.5 µg/mL (≈ 1.25 µM)
MIC ([9]; read-out: MIC): 1 µg/mL (≈ 2.49 µM)
MIC (Morg morg PR15; read-out: MIC): 16 µg/mL (≈ 39.9 µM)
MIC (Proteus incon PR33; read-out: MIC): 8 µg/mL (≈ 19.9 µM)
MIC (Proteus rett C24; read-out: MIC): 8 µg/mL (≈ 19.9 µM)
MIC (Salmonella 1335; read-out: MIC): 2 µg/mL (≈ 4.98 µM)
MIC (Salmonella X514; read-out: MIC): 0.5 µg/mL (≈ 1.25 µM)
MIC (Serratia SE3; read-out: MIC): 32 µg/mL (≈ 79.7 µM)
MIC (Serratia X99; read-out: MIC): 16 µg/mL (≈ 39.9 µM)
MIC (Shig sonn. N9; read-out: MIC): 2 µg/mL (≈ 4.98 µM)
MIC ([10]; NRRLX1.1, read-out: MIC): 1 µg/mL (≈ 2.49 µM)
MIC [11]: 32 µg/mL (≈ 79.7 µM)
MIC ([12]; read-out: MIC): 16 µg/mL (≈ 39.9 µM)
MIC ([13]; read-out: MIC): 64 µg/mL (≈ 159 µM)
MIC ([14]; read-out: MIC): 4 µg/mL (≈ 9.97 µM)
MIC ([15]; read-out: MIC): 4 µg/mL (≈ 9.97 µM)
MIC ([16]; PARK1, read-out: MIC): 0.25 µg/mL (≈ 0.623 µM)
MIC ([17]; read-out: MIC): 0.06 µg/mL (≈ 0.15 µM)

CCS(=O)(=O)Nc1cccc(C(N)C(=O)N[C@@H]2C(=O)N3C(C(=O)O)=C(C(F)(F)F)CC[C@H]23)c1 (stereo partly shown) [Compound 6]
MIC (Acom AC12): 64 µg/mL (≈ 130 µM)
MIC (Citro CF17): 32 µg/mL (≈ 65.2 µM)
MIC [1]: 16 µg/mL (≈ 32.6 µM)
MIC [2]: 16 µg/mL (≈ 32.6 µM)
MIC [3]: 32 µg/mL (≈ 65.2 µM)
MIC (Enterobacter cloacae EB5): 32 µg/mL (≈ 65.2 µM)
MIC [4]: 32 µg/mL (≈ 65.2 µM)
MIC (Enterococcus faecium X66): 64 µg/mL (≈ 130 µM)
MIC (Escherichia coli EC14): 1 µg/mL (≈ 2.04 µM)
MIC (Escherichia coli N10): 8 µg/mL (≈ 16.3 µM)
MIC (Escherichia coli TEM): 1 µg/mL (≈ 2.04 µM)
MIC [5]: 4 µg/mL (≈ 8.16 µM)
MIC [6]: 1 µg/mL (≈ 2.04 µM)
MIC [7]: 32 µg/mL (≈ 65.2 µM)
MIC [8]: 0.25 µg/mL (≈ 0.51 µM)
MIC [9]: 1 µg/mL (≈ 2.04 µM)
MIC (Morg morg PR15): 16 µg/mL (≈ 32.6 µM)
MIC (Proteus incon PR33): 16 µg/mL (≈ 32.6 µM)
MIC (Proteus rett C24): 32 µg/mL (≈ 65.2 µM)
MIC (Salmonella 1335): 8 µg/mL (≈ 16.3 µM)
MIC (Salmonella X514): 1 µg/mL (≈ 2.04 µM)
MIC (Serratia SE3): 128 µg/mL (≈ 261 µM)
MIC (Serratia X99): 64 µg/mL (≈ 130 µM)
MIC (Shig sonn. N9): 4 µg/mL (≈ 8.16 µM)
MIC [10]: 4 µg/mL (≈ 8.16 µM)
MIC [11]: 32 µg/mL (≈ 65.2 µM)
MIC [12]: 8 µg/mL (≈ 16.3 µM)
MIC [13]: 32 µg/mL (≈ 65.2 µM)
MIC [14]: 4 µg/mL (≈ 8.16 µM)
MIC [15]: 8 µg/mL (≈ 16.3 µM)
MIC [16]: 0.125 µg/mL (≈ 0.255 µM)
MIC [17]: 0.06 µg/mL (≈ 0.122 µM)
